From patent US20150225374A1, “4-INDAZOLYLAMINO-2-(2-(INDOL-3-YL)ETHYL)AMINOPYRIMIDINES USEFUL FOR THE TREATMENT OF CANCER” (NOVIGA RESEARCH AB, priority 2012, published 2015)

What was measured:
[1] = tested on: colchicine site on tubulin (Porcine brain tubulin); experiment: Colchicine displacement assay, fluorometric detection; assay type: binding; conditions: 2 μM porcine brain tubulin, 2 μM colchicine, compound at 20 μM, 2 h; control = colchicine bound to tubulin
Protocol: To study whether the compounds bind to the colchicine site on tubulin, a colchicine displacement assay using fluorometric detection was performed as previously described (Bhattacharyya B. et al.; Proc Natl Acad Sci U S A 1974, 71:2627-31; Risinger A L. et al.; J Pharmacol Exp Ther 2011: 336:652-60). Porcine brain tubulin at 2 μM (Cytoskeleton) in a buffer consisting of 80 mM PIPES, 2 mM MgCl2, 0.5 mM EGTA at pH 7.0 with addition of 1 mM GTP, was incubated alone, with 2 μM colchicine or with 2 μM colchicine in the presence of test compounds or reference compound combretastatin A4 at 20 μM for 2 h in a black half-area 96-well plate (Corning Inc, Corning, N.Y., USA). Thereafter, the fluorescence was measured using a FLUOStar Optima (BMG Labtech) at an excitation of 380 nm and emission of 440 nm. The results are presented as percent of control i.e. colchicine bound to tubulin.

[2] = tested on: VEGF-induced cord formation; experiment: VEGF-driven vascular cord formation, stem cell co-culture model of angiogenesis (StemKit), neo-angiogenic setting; assay type: cell-based
Protocol: (§1) To study the vascular disrupting properties of one of the compounds, example 3, an evaluation of its inhibitory and disruptive effects on VEGF-driven vascular cord formation in an in vitro stem cell co-culture model of angiogenesis (StemKit, Essen Bioscience) was carried out.

established vessels = experiment: Stem cell co-culture model of angiogenesis (StemKit), established vessels; assay type: cell-based; conditions: doses from 3 nM up to 100 nM, example 3 and combretastatin A4 had equal potency
Protocol: as §1

[3] = tested on: CCRF-CEM cancer cells - leukemia; experiment: Fluorometric Microculture Cytotoxicity Assay (FMCA), CCRF-CEM; assay type: cell-based; conditions: Homo sapiens, 72 h, CCRF-CEM acute lymphoblastic leukemia cell line
Text: (§2) The Fluorometric Microculture Cytotoxicity Assay, FMCA (Larsson, R., et al.; Anticancer Res, 1989, 9, 1111-1119), is a three day non-clonogenic microplate-based cell viability assay used for measurement of the cytotoxic and/or cytostatic effect of compounds in vitro (Lindhagen, E. et al.; Nat. Protoc., 2008, 3, 1364-1369). FMCA represents a valuable method to measure cytotoxicity in a number of cell types, both cell lines and primary cells from patients (Larsson, R., et al.; Int. J. Cancer, 1992, 50, 177-185; Fridborg, H., et al.; Eur. J. Cancer, 1999. 35, 424-432; Dhar, S., et al.; Br. J. Cancer, 1996, 74, 888-896).
(§3) FMCA is based on the principle that fluorescein diacetate (FDA) is converted to the fluorescent probe fluorescein by esterases […]. For experiments, 96-well microplates are prepared with compounds and stored at −20° C. or −70° C. until use. Cells are then seeded into the drug-prepared plates and placed in an incubator for 72 h. On the last day of incubation, the plates are washed and a buffer containing FDA is added and incubated with the cells for 45 minutes. Finally the fluorescence per well is measured in a fluorometer and a Survival Index % (SI) for each compound-treated well is calculated with the equation: Compound-treated cells minus blank divided by control cells minus blank. A high SI-value indicates a large percentage of living cells and vice versa.
For experiments with compounds of the invention, 96-well plates were prepared as follows: Compounds were dissolved in DMSO to 10 mM and stored at −20° C. The test compounds were thawed, protected from light, mixed, and 3 μl stock solution was added to test tubes containing 297 μl culture medium RPMI-1640, to give the concentration 100 μM. Then, compounds were serially diluted to concentrations ten times higher than the desired test concentrations. Finally, 20 μl of each compound solution was added in duplicates to wells in two V-bottomed 96-well plates. The plates were stored at −20° C. until use.
On the day of cell seeding, 180 μl of cell suspension was added to each well in the two assay plates. The final concentrations of compounds tested were 10 μM, 1 μM, 0.1 μM and 0.01 μM. The experiment was performed twice.
In subsequent experiments, compounds were tested, along with a number of approved cancer drugs (dasatinib and pazopanib) as described above. The acute lymphoblastic leukemia cell line CCRF-CEM was used throughout. In the assay plates, medium was added to eight empty wells (blank wells) and wells filled with cell suspension served as control wells. SI-values were then calculated for each compound-treated well as described above. All experiments were conducted twice and a new batch of plates was prepared for each experiment.
(§4) To obtain EC50-values, plates were prepared with compounds serially diluted in culture media to suitable concentration ranges for each compound. Thereafter cells were added at a density of 10 000 cells per well and FMCA was performed after 72 h. Data analysis was performed using GraphPadPrism software, where SI values for each concentration were plotted on a log scale and processed with non-linear regression and a standard sigmoidal dose-response model.

A2780 = experiment: FMCA cytotoxicity, ovarian cancer cell line A2780; assay type: cell-based; conditions: Homo sapiens
Text: as §2, §3, §4
(§5) The compounds of the invention were also tested on further cancer cell lines related to ovarian cancer (A2780; see e.g. Hamilton, T. et al.; Semin. Oncol., 1984, 11, 285-298) and multidrug-resistant ovarian cancer (A2780/Adr). The known microtubule interfering agents vincristine and paclitaxel were included as references in the resistant and non-resistant ovarian cancer cell lines.

A2780/Adr = experiment: FMCA cytotoxicity, multidrug-resistant ovarian cancer cell line A2780/Adr; assay type: cell-based
Text: as §2, §3, §4, §5

bovine tubulin protein = experiment: Tubulin polymerization assay kit (Cytoskeleton Inc), fluorescence; assay type: biochemical; conditions: cell-free, example compounds at 1, 3 and 10 μM, controls at 3 μM, 60 mins, read-out: Inhibition of tubulin polymerization IC50
Protocol: Example compounds were further tested in a tubulin polymerization assay kit from Cytoskeleton Inc (Denver, Colo., USA). Polymerization is followed by fluorescence enhancement due to the incorporation of a fluorescent reporter into microtubules as polymerization occurs. Vincristine and paclitaxel at 3 μM were used as positive controls for tubulin polymerization inhibition and stabilisation, respectively. All compounds were dissolved in DMSO, which was used as solvent control. For experiments, example compounds (1, 3, and 10 μM) and control compounds (3 μM) were incubated with bovine tubulin protein in a cell-free environment and the fluorescence was then measured in a fluorometer (Fluostar Optima, BMG Labtech, Offenburg, Germany) at 360/450 nm every minute for a total of 60 mins.

Colchicine-tubulin binding Percent of control [1] | IC50 (bovine tubulin protein) [nM] | Compound | threshold concentration of inhibitory effect on VEGF-induced cord formation ([2]; tested from 0.78 nM and upwards, dose dependent inhibitory effect) [nM] | disruption of established blood vessels (established vessels) | EC50 [3] [nM] | EC50 (A2780) [nM] | EC50 (A2780/Adr) [nM] | inhibition of VEGF-induced cord formation ([2]; from the lowest tested dose 4.6 nM up to 10 μM) [%]
68% of control | 1000 to 3000 | CCOc1ccc2[nH]cc(CCNc3nccc(Nc4cccc5c4cnn5C)n3)c2c1 [Example 1] |  |  | 1.9 | 0.4 | 3.6 | 
77% of control |  | COc1ccc2[nH]cc(CCNc3nccc(Nc4ccc5cn(C)nc5c4)n3)c2c1 [Example 2, N^2-[2-(5-methoxy-1H-indol-3-yl)ethyl]-N^4-(2-methyl-2H-indazol-6-yl)pyrimidine-2,4-diamine] |  |  | 5.1 | 9.3 | 34 | 
68% of control | ~3000 | CCOc1ccc2[nH]cc(CCNc3nccc(Nc4ccc5cn(C)nc5c4)n3)c2c1 [Example 3, N^2-[2-(5-ethoxy-1H-indol-3-yl)ethyl]-N^4-(2-methyl-2H-indazol-6-yl)pyrimidine-2,4-diamine] |  | concentration dependent disruption of blood vessels | 5.3 | 0.72 | 16 | 100
94% of control | ~3000 | COc1ccc2[nH]cc(CCNc3nccc(Nc4ccc5c(C)n(C)nc5c4)n3)c2c1 [Example 4, N^4-(2,3-dimethyl-2H-indazol-6-yl)-N^2-[2-(5-methoxy-1H-indo1-3-yl)ethyl]pyrimidine-2,4-diamine] |  |  | 11 | 34 | 370 | 
 |  | CCOc1ccc2[nH]cc(CCNc3nccc(Nc4ccc5c(C)n(C)nc5c4)n3)c2c1 [Example 5, N^4-(2,3-dimethyl-2H-indazol-6-yl)-N^2-[2-(5-ethoxy-1H-indol-3-yl)ethyl]pyrimidine-2,4-diamine] |  |  | 5.5 | 8.5 | 150 | 
99% of control | 3000 to 10000 | CCOc1ccc2[nH]cc(CCNc3nc(C)cc(Nc4ccc5c(C)n(C)nc5c4)n3)c2c1 [Example 6, N^4-(2,3-dimethylindazol-6-yl)-N^2-[2-(5-ethoxy-1H-indol-3-yl)ethyl]-6-methyl-pyrimidine-2,4-diamine] |  |  | 34 | 47 | 390 | 
64% of control |  | COc1ccc2[nH]cc(CCNc3nccc(Nc4cccc5c4cnn5C)n3)c2c1 [Example 7, N^2-[2-(5-methoxy-1H-indol-3-yl)ethyl]-N^4-(1-methylindazol-4-yl)pyrimidine-2,4-diamine] |  |  | 5.1 | 2.9 | 13 | 
 |  | CC(=O)O[C@H]1C(=O)[C@@]2(C)[C@H]([C@H](OC(=O)c3ccccc3)[C@]3(O)C[C@H](OC(=O)[C@H](O)[C@@H](NC(=O)c4ccccc4)c4ccccc4)C(C)=C1C3(C)C)[C@]1(OC(C)=O)CO[C@@H]1C[C@@H]2O [Paclitaxel, paclitaxel, reference compound] |  |  |  | 0.26 | 810 | 
 |  | Cc1nc(Nc2ncc(C(=O)Nc3c(C)cccc3Cl)s2)cc(N2CCN(CCO)CC2)n1 [Ref. 1, dasatinib, reference compound] |  |  | 9700 |  |  | 
 |  | Cc1ccc(Nc2nccc(N(C)c3ccc4c(C)n(C)nc4c3)n2)cc1S(N)(=O)=O [Ref. 2, pazopanib, reference compound] |  |  | 25900 |  |  | 
 | < 3000 | CC[C@]1(O)C[C@H]2CN(CCc3c([nH]c4ccccc34)[C@@](C(=O)OC)(c3cc4c(cc3OC)N(C=O)[C@H]3[C@@](O)(C(=O)OC)[C@H](OC(C)=O)[C@]5(CC)C=CCN6CC[C@]43[C@@H]65)C2)C1 [Vincristine, vincristine, reference compound] |  |  |  | 0.22 | 210 | 

Compound | Colchicine-tubulin binding Percent of control [1] | IC50 (bovine tubulin protein) [nM] | threshold concentration of inhibitory effect on VEGF-induced cord formation ([2]; tested from 0.78 nM and upwards, dose dependent inhibitory effect) [nM] | disruption of established blood vessels (established vessels) | EC50 [3] [nM] | EC50 (A2780) [nM] | EC50 (A2780/Adr) [nM] | inhibition of VEGF-induced cord formation ([2]; from the lowest tested dose 4.6 nM up to 10 μM) [%]
COc1ccc(/C=C\c2cc(OC)c(OC)c(OC)c2)cc1O [Combretastatin A4, combretastatin A4, reference compound] | 66% of control |  | 1.6 | concentration dependent disruption of blood vessels |  |  |  | 
